# Experimental data from patent publication US20250205191A1, “R(-)-MDMA COMPOSITIONS AND METHODS OF TREATMENT” (EmpathBio, Inc., priority 2023, published 2025).
# Experiments:
# human 5-HT2A receptor = biological target: T1, human 5-HT2A receptor (Homo sapiens, UniProt P28223); assay: 5-HT2A agonism, inositol monophosphate accumulation (HTRF), CHO-K1 recombinant cells; assay type: cell-based
# T1 construct: expressed in transfected cells; host or cells: CHO-K1
# human 5-HT2B receptor = biological target: T2, human 5-HT2B receptor (Homo sapiens, UniProt P41595); assay: 5-HT2B agonism, inositol monophosphate accumulation (HTRF), CHO-K1 recombinant cells; assay type: cell-based
# T2 construct: expressed in transfected cells; host or cells: CHO-K1
# [1] = biological target: T3, human 5-HT2C (edited) receptor (Homo sapiens, UniProt P28335); assay: 5-HT2C (edited) agonism, inositol monophosphate accumulation (HTRF), CHO-K1 recombinant cells; assay type: cell-based
# T3 sequence (P28335 33-458): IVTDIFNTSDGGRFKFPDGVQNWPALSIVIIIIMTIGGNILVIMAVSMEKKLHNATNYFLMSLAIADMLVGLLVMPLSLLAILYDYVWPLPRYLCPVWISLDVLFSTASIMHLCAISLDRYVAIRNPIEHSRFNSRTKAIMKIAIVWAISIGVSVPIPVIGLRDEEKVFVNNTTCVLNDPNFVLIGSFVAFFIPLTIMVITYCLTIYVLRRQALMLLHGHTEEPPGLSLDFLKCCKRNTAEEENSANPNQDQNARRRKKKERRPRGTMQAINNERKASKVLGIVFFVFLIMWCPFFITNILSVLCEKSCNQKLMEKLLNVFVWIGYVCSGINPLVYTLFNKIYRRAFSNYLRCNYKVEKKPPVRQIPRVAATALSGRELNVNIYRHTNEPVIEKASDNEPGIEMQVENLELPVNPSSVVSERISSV
# male C57BL/6J mice = assay: Mouse head twitch response (HTR); assay type: in vivo; settings: 3 mg/kg IP, 30 min, vs vehicle control group
# Procedure: Mouse Head Twitch (HTR) is a side-to-side rotational head movement in rodents that is widely employed as a behavioral measure of 5-HT2A receptor activation (Halberstadt and Geyer 2013). […] Animals with head mounted magnets were dosed intraperitoneally and immediately tested for HTR for 30 min using an automated magnetometer detection system (Halberstadt and Geyer 2013).
# healthy volunteers [2] = assay: Phase 1 clinical study, safety and tolerability; assay type: in vivo, human
# From the text: The primary endpoints assessed the safety, tolerability, pharmacokinetics (PK), and exploratory pharmacodynamic (PD) observations. Treatment-related adverse events (AEs) were in line with expectations (e.g., nausea at 29.2%, headache at 16.7%) and generally dose dependent.
# healthy volunteers [3] = assay: Phase 1 Spoken Intensity Rating Scale (SIRS); assay type: in vivo, human
# Procedure: Beyond 8 hours postdose, mean SIRS scores remained ≤0.5 in all cohorts.
# healthy volunteers [4] = assay: Phase 1 exploratory Visual Analog Scale (VAS); assay type: in vivo, human; settings: vs placebo; dose-dependent pattern
# From the text: VAS measure changes in subjective experience that are typical in healthy human volunteer studies. These include experiences such as Happy, Open, Loving, Close to Others, Sociable, and Lonely.
# oxytocin = assay: Phase 1 hormone response, oxytocin; assay type: in vivo, human; settings: any cohort vs placebo group
# healthy volunteers [5] = assay: Phase 1 5-Dimensions-Altered States of Consciousness (5D-ASC); assay type: in vivo, human; settings: 75-225 mg oral
# From the text: The 5D-ASC measures the acute drug effects using 5 primary dimensions and 11 lower-order scales to assess alterations in mood, perception and experience of self in relation to environment and thought disorder. The 5 dimensions include oceanic boundlessness, anxious ego dissolution, visionary restructuralization, auditory alterations, and reduction of vigilance.
# A notable result illustrated by the ASC data was the reporting ratio of feelings of Oceanic Boundlessness (OB) relative to Dread of Ego Dissolution (DED). The ratio can be a useful metric as they are inversely correlated with psychedelic-mediated antidepressant efficacy (OB positively correlated, DED negatively correlated). […] The OB-DED ratio was consistent with the 11-Dimensional Altered States of Consciousness (11D-ASC).
# healthy volunteers [6] = assay: 11-Dimensions-Altered States of Consciousness (11D-ASC); assay type: in vivo, human
# healthy volunteers [7] = assay: Phase 1 Emotional Breakthrough Inventory (EBI); assay type: in vivo, human
# From the text: Self-reported Emotional Breakthrough Inventory (EBI) include facing emotionally difficult feelings that are usually pushed aside; experiencing resolution of a personal conflict or trauma; ability to explore challenging emotions and memories; having an emotional breakthrough; achieving a sense of closure on an emotional problem; and achieving emotional release followed by sense of relief. Emotional breakthrough is an important and distinct component of the acute psychedelic experience that appears to be a key mediator (state predictor) of subsequent longer-term psychological changes in psychiatric populations. (Carhartt-Harris, et al., Trial of Psilocybin versus Escitalopram for Depression, N Engl J Med 2021; 384:1402-1411).
# healthy volunteers [8] = assay: Phase 1 Multifaceted Empathy Test (MET); assay type: in vivo, human; settings: 75-225 mg
# From the text: The Multifaceted Empathy Test (MET) measures cognitive empathy (CE), explicit emotional empathy (EEE) and implicit emotional empathy (IEE).
# healthy volunteers [9] = assay: Phase 1 Challenging Experiences Questionnaire (CEQ); assay type: in vivo, human; settings: 6.5 hours post dosing
# From the text: Seven Challenging Experiences Questionnaire (CEQ) factors (grief, fear, death, insanity, isolation, physical distress, and paranoia) provide a phenomenological profile of challenging aspects of experiences with R(−)-MDMA.
# [10] = Phase 1 clinical study, plasma pharmacokinetics; settings: for AUC0-t / Cmax / t1/2: mean (SD); for Tmax: median (minimum, maximum)
# [11] = single oral 75-225 mg, healthy participants
# [12] = plasma analyte after oral 125 mg R(−)-MDMA, Day 9
# [13] = plasma analyte after single oral 75 mg R(−)-MDMA, Day 1
# [14] = plasma analyte after single oral 125 mg R(−)-MDMA, Day 1
# [15] = plasma analyte after single oral 175 mg R(−)-MDMA, Day 1
# [16] = plasma analyte after single oral 225 mg R(−)-MDMA, Day 1
# T1 sequence (P28223 whole entry): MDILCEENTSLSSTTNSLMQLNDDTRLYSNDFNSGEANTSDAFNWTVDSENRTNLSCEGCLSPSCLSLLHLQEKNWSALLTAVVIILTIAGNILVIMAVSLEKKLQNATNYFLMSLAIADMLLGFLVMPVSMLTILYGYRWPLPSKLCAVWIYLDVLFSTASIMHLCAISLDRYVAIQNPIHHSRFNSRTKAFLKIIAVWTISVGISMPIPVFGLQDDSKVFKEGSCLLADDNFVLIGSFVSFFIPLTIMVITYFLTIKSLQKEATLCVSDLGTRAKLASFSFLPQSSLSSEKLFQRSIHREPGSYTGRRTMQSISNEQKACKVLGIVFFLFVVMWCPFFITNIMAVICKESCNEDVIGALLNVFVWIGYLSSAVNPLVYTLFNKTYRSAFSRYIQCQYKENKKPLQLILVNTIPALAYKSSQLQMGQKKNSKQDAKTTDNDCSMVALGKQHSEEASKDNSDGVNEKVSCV
# T2 sequence (P41595 whole entry): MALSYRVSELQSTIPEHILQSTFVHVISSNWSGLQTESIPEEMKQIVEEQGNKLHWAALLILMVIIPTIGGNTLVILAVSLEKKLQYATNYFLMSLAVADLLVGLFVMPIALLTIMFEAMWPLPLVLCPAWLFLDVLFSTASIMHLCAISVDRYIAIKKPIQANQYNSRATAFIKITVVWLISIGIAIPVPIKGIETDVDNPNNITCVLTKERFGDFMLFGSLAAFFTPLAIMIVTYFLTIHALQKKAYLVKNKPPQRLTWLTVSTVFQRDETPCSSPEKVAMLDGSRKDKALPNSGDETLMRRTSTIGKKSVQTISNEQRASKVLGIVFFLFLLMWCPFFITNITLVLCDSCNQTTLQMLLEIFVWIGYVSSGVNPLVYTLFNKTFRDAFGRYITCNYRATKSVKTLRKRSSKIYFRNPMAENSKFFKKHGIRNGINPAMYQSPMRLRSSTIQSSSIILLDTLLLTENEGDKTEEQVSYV
structure (smiles),measurement,setting,value
"CN[C@H](C)Cc1ccc2c(c1)OCO2 [R(−)-MDMA, R(−)-3,4-methylenedioxymethamphetamine]",agonism in words,human 5-HT2A receptor; 5-HT2A receptors,moderate potency partial agonism
same,EC50,"human 5-HT2A receptor; 5-HT2A, CHO-K1, IP accumulation",3.34 µM
same,Efficacy (% of a-Me-5-HT response),"human 5-HT2A receptor; 5-HT2A, relative to α-Me-5-HT at its EC100",69.3%
same,agonism in words,human 5-HT2B receptor; 5-HT2B receptors,high potency full agonism
same,EC50,"human 5-HT2B receptor; 5-HT2B, CHO-K1, IP accumulation",0.053 µM
same,Efficacy (% of a-Me-5-HT response),"human 5-HT2B receptor; 5-HT2B, relative to α-Me-5-HT at its EC100",91.8%
same,agonism in words,[1]; 5-HT2C (edited) receptors,high potency full agonism
same,Efficacy (% of a-Me-5-HT response),"[1]; 5-HT2C (edited), relative to α-Me-5-HT at its EC100",96.6%
same,head twitch response (HTR),male C57BL/6J mice,significantly increased
same,bruxism,healthy volunteers [2]; highest dose (225 mg),observed in a single subject
same,peak body temperatures,healthy volunteers [2]; single oral 75-225 mg,within the normal range
same,serious or severe AEs,healthy volunteers [2]; single oral 75-225 mg,no serious or severe AEs were observed
same,study discontinuations,healthy volunteers [2]; single oral 75-225 mg,no study discontinuations
same,treatment-related adverse event: headache,healthy volunteers [2]; [11],16.7%
same,treatment-related adverse event: nausea,healthy volunteers [2]; [11],29.2%
same,blood pressure and heart rate,"healthy volunteers [2]; single oral 75-225 mg, limited dose dependency",Non-clinically significant increases
same,SIRS dose response,healthy volunteers [3]; 75-225 mg oral,strong dose response
same,mean SIRS scores,"healthy volunteers [3]; all cohorts, beyond 8 hours postdose",≤ 0.5
same,mean SIRS scores,"healthy volunteers [3]; fasted state, each cohort, 1 to 2 hours postdose",small nominal increases from Baseline
same,"VAS scores for positive affect (happy, loving, openness, less loneliness)",healthy volunteers [4],increased VAS scores compared to placebo
same,oxytocin production,oxytocin,did not appear to have an effect
same,5D-ASC sub-components and total score,healthy volunteers [5],dose-dependent increase in all measured sub-components and in the total score
same,11D-ASC changed meaning of percepts,healthy volunteers [6]; 225 mg dose group vs comparators of FIG. 11,strongest
same,11D-ASC response profile,healthy volunteers [6]; 75-225 mg oral,psychedelic-like response
same,"EBI, acute experience of emotional breakthroughs",healthy volunteers [7]; 225 mg vs placebo,significantly higher
same,"EBI, acute experience of emotional breakthroughs, dose response",healthy volunteers [7]; 75-225 mg,dose-dependent increase
same,"MET LSmean scores in CE negative emotions, changes from baseline",healthy volunteers [8],dose-dependent manner
same,CEQ changes from baseline,healthy volunteers [9],clear dose-dependent response with statistical significance at higher doses
same,food effect,[10]; 125 mg fasted vs fed,No food effect
same,mean plasma concentration at final PK assessments,[10]; 30 hours postdose,remained above the lower limit of quantitation
same,AUC0-t,[10]; [12],7229.6028 (1863.6711) h · ng/mL
same,Cmax,[10]; [12],455.4850 (65.0461) ng/mL
same,t1/2,[10]; [12],13.3444 (3.5309) hr
same,Tmax,[10]; [12],"2.758 (2.08, 4.02) hr"
same,AUC0-t,[10]; [13],3976.7452 (1350.4178) h · ng/mL
same,Cmax,[10]; [13],275.8217 (90.7390) ng/mL
same,t1/2,[10]; [13],9.2622 (2.5227) hr
same,Tmax,[10]; [13],"3.000 (2.02, 3.00) hr"
same,AUC0-t,[10]; [14],7135.8809 (1245.2963) h · ng/mL
same,Cmax,[10]; [14],425.2550 (62.4569) ng/mL
same,t1/2,[10]; [14],11.8615 (1.9947) hr
same,Tmax,[10]; [14],"3.517 (1.50, 4.02) hr"
same,AUC0-t,[10]; [15],10007.8882 (2324.8851) h · ng/mL
same,Cmax,[10]; [15],617.3440 (158.9596) ng/mL
same,t1/2,[10]; [15],12.2009 (1.4988) hr
same,Tmax,[10]; [15],"4.000 (3.00, 6.02) hr"
same,AUC0-t,[10]; [16],14453.1811 (3684.7488) h · ng/mL
same,Cmax,[10]; [16],828.6450 (213.1377) ng/mL
same,t1/2,[10]; [16],14.0772 (3.2340) hr
same,Tmax,[10]; [16],"5.000 (3.00, 6.02) hr"
